Data: US12364733B1, “Method for treating septic shock” (Inotrem, priority 2018, dated 2025)

System: septic shock patients
Experiment: Phase IIa clinical trial with nangibotide in septic shock patients: SOFA score evolution
Format: in vivo, human
Protocol: This was a randomized, double-blind, two-stage, placebo-controlled study. As described in FIG. 7, the study was composed of 2 stages with a similar treatment regimen, in which 0.3, 1.0 or 3.0 mg/kg/h of nangibotide (corresponding to peptide LR12, having an amino acid sequence as set forth in SEQ ID NO: 9, also known as motrem) was tested versus placebo. All patients with a diagnosis of septic shock were considered for study participation. All potential study patients underwent standard care management procedures. Patients with evidence of septic shock according to the Sepsis-3 definition (Singer et al, JAMA 2016) were considered for inclusion (i.e., patients suffering from sepsis and having (i) persisting hypotension requiring vasopressors to maintain their mean arterial pressure ≥65 mm Hg and (ii) a serum lactate level >2 mmol/L (18 mg/dL) despite adequate volume resuscitation).
After screening for eligibility, patients were randomized to one of the treatment arms. Then, they received either a 5 mg/kg loading dose of nangibotide over 15 minutes followed by a continuous intravenous (i.v.) infusion of nangibotide or a matching placebo on top of standard of care. Treatment with study drug was initiated as early as possible, but no later than 24 hours after the onset of septic shock, defined by the start of vasopressor therapy. Patients were treated until 12 (±2) hours after the resolution of their septic shock (defined as vasopressor withdrawal) with a maximum treatment duration of 5 days (120 hours).
Adverse events (AEs) were coded using the MedDRA dictionary version 18.1. Treatment-emergent adverse events (TEAEs) were summarized and listed. Analysis was performed in 49 septic shock patients. The demographic and baseline characteristics were summarized in a descriptive fashion within each population: categorical variables were summarized by contingency tables (frequencies and percentages). sTREM-1 levels at day 1 were also described (mean, standard deviation, standard error, median, quartiles and range, minimum and maximum values). Mortality rates were reported by frequency and percentage. For continuous endpoints, i.e., the sequential organ failure assessment (SOFA), missing data were imputed using LOCF (Last Observation Carry-Forward). For time-to-event analyses, i.e., duration of invasive mechanical ventilation (IMV), duration of continuous renal replacement therapy (CRRT), survival, censored data techniques were utilized. In addition, a sensitivity analysis of time to event data (except survival) was performed using censoring at maximum limit for the corresponding observation period (i.e., either day 28 or day 90). […] The following comparisons were made: each nangibotide dose arm to placebo, all nangibotide doses combined versus placebo, and dose-response using an ordinal trend test. Exploratory composite endpoint: incidence (number and proportion) of patients alive at day 28 and free of vasopressor, free of IMV and free of CRRT were summarized by treatment and compared between treatments with a Fisher's exact test. For pharmacodynamic markers, log transformed data were represented as percentage change from baseline at day 5 or End of Infusion (EOI) if end of infusion was stopped before day 5. […] “All nangibotide” refers to analyses obtained by pooling data from 0.3, 1 and 3 mg/kg/h nangibotide-treated groups.

[1] = patients with low sTREM-1 at baseline (below median 433 pg/mL), Day 3, 3.0 mg/kg/h
[2] = patients with low sTREM-1 at baseline (below median 433 pg/mL), Day 3, all nangibotide doses pooled
[3] = patients with low sTREM-1 at baseline (below median 433 pg/mL), Day 4, 0.3 mg/kg/h
[4] = patients with low sTREM-1 at baseline (below median 433 pg/mL), Day 4, 1.0 mg/kg/h
[5] = patients with low sTREM-1 at baseline (below median 433 pg/mL), Day 4, 3.0 mg/kg/h
[6] = patients with low sTREM-1 at baseline (below median 433 pg/mL), Day 4, all nangibotide doses pooled
[7] = patients with low sTREM-1 at baseline (below median 433 pg/mL), Day 5, 1.0 mg/kg/h
[8] = whole population, Day 1, 0.3 mg/kg/h
[9] = whole population, Day 1, 1.0 mg/kg/h
[10] = whole population, Day 1, 3.0 mg/kg/h
[11] = whole population, Day 1, all nangibotide doses pooled
[12] = whole population, Day 2, 0.3 mg/kg/h
[13] = whole population, Day 2, 1.0 mg/kg/h
[14] = whole population, Day 2, 3.0 mg/kg/h
[15] = whole population, Day 2, all nangibotide doses pooled
[16] = whole population, Day 3, 0.3 mg/kg/h
[17] = whole population, Day 3, 1.0 mg/kg/h
[18] = whole population, Day 3, 3.0 mg/kg/h
[19] = whole population, Day 3, all nangibotide doses pooled
[20] = whole population, Day 4, 0.3 mg/kg/h
[21] = whole population, Day 4, 1.0 mg/kg/h
[22] = whole population, Day 4, 3.0 mg/kg/h
[23] = whole population, Day 4, all nangibotide doses pooled
[24] = whole population, Day 5, 1.0 mg/kg/h

nangibotide (LQEEDAGEYGCM; TLT-1 peptide)
SOFA score evolution (change versus baseline, LOCF), LSMean (SE) [1]: −2.10 (1.35)
SOFA score, estimated difference (SE) vs. placebo [1]: 0.01 (1.69)
SOFA score evolution (change versus baseline, LOCF), LSMean (SE) [2]: −2.10 (0.67)
SOFA score, estimated difference (SE) vs. placebo [2]: 0.02 (1.23)
SOFA score evolution (change versus baseline, LOCF), LSMean (SE) [3]: −2.70 (0.94)
SOFA score, estimated difference (SE) vs. placebo [3]: −0.57 (1.32)
SOFA score evolution (change versus baseline, LOCF), LSMean (SE) [4]: −1.79 (1.03)
SOFA score, estimated difference (SE) vs. placebo [4]: 0.34 (1.41)
SOFA score evolution (change versus baseline, LOCF), LSMean (SE) [5]: −2.62 (1.24)
SOFA score, estimated difference (SE) vs. placebo [5]: −0.49 (1.55)
SOFA score evolution (change versus baseline, LOCF), LSMean (SE) [6]: −2.37 (0.62)
SOFA score, estimated difference (SE) vs. placebo [6]: −0.24 (1.13)
SOFA score evolution (change versus baseline, LOCF), LSMean (SE) (patients with low sTREM-1 at baseline (below median 433 pg/mL), Day 5, 0.3 mg/kg/h): −2.71 (1.10)
SOFA score, estimated difference (SE) vs. placebo (patients with low sTREM-1 at baseline (below median 433 pg/mL), Day 5, 0.3 mg/kg/h, 0.3 mg/kg): −0.71 (1.56)
SOFA score, estimated difference (SE) vs. placebo (patients with low sTREM-1 at baseline (below median 433 pg/mL), Day 5, 0.3 mg/kg/h, listed as nangibotide, 0.3 mg/kg): −0.71
SOFA score evolution (change versus baseline, LOCF), LSMean (SE) [7]: −1.93 (1.21)
SOFA score, estimated difference (SE) vs. placebo [7]: 0.06 (1.65)
SOFA score evolution (change versus baseline, LOCF), LSMean (SE) (patients with low sTREM-1 at baseline (below median 433 pg/mL), Day 5, 3.0 mg/kg/h): −1.87 (1.46)
SOFA score, estimated difference (SE) vs. placebo (patients with low sTREM-1 at baseline (below median 433 pg/mL), Day 5, 3.0 mg/kg/h, 3 mg/kg): 0.12 (−1.82)
SOFA score, estimated difference (SE) vs. placebo (patients with low sTREM-1 at baseline (below median 433 pg/mL), Day 5, 3.0 mg/kg/h, listed as nangibotide, 3 mg/kg): 0.12
SOFA score evolution (change versus baseline, LOCF), LSMean (SE) (patients with low sTREM-1 at baseline (below median 433 pg/mL), Day 5, all nangibotide doses pooled): −2.17 (0.73)
SOFA score evolution (change versus baseline, LOCF), LSMean (SE) [8]: −0.65 (0.52)
SOFA score, estimated difference (SE) vs. placebo [8]: 0.26 (0.75)
SOFA score evolution (change versus baseline, LOCF), LSMean (SE) [9]: −0.39 (0.54)
SOFA score, estimated difference (SE) vs. placebo [9]: 0.53 (0.77)
SOFA score evolution (change versus baseline, LOCF), LSMean (SE) [10]: −0.33 (0.54)
SOFA score, estimated difference (SE) vs. placebo [10]: 0.59 (0.76)
SOFA score evolution (change versus baseline, LOCF), LSMean (SE) [11]: −0.45 (0.31)
SOFA score, estimated difference (SE) vs. placebo [11]: 0.46 (0.62)
SOFA score evolution (change versus baseline, LOCF), LSMean (SE) [12]: −2.27 (0.63)
SOFA score, estimated difference (SE) vs. placebo [12]: −0.94 (0.91)
SOFA score evolution (change versus baseline, LOCF), LSMean (SE) [13]: −1.97 (0.65)
SOFA score, estimated difference (SE) vs. placebo [13]: −0.64 (0.92)
SOFA score evolution (change versus baseline, LOCF), LSMean (SE) [14]: −0.91 (0.65)
SOFA score, estimated difference (SE) vs. placebo [14]: 0.42 (0.92)
SOFA score evolution (change versus baseline, LOCF), LSMean (SE) [15]: −1.72 (0.37)
SOFA score, estimated difference (SE) vs. placebo [15]: −0.38 (0.75)
SOFA score evolution (change versus baseline, LOCF), LSMean (SE) [16]: −2.67 (0.68)
SOFA score, estimated difference (SE) vs. placebo [16]: −1.42 (0.98)
SOFA score evolution (change versus baseline, LOCF), LSMean (SE) [17]: −1.87 (0.71)
SOFA score, estimated difference (SE) vs. placebo [17]: −0.62 (1.00)
SOFA score evolution (change versus baseline, LOCF), LSMean (SE) [18]: −0.91 (0.70)
SOFA score, estimated difference (SE) vs. placebo [18]: 0.34 (1.00)
SOFA score evolution (change versus baseline, LOCF), LSMean (SE) [19]: −1.82 (0.40)
SOFA score, estimated difference (SE) vs. placebo [19]: −0.57 (0.81)
SOFA score evolution (change versus baseline, LOCF), LSMean (SE) [20]: −2.91 (0.67)
SOFA score, estimated difference (SE) vs. placebo [20]: −1.50 (0.96)
SOFA score evolution (change versus baseline, LOCF), LSMean (SE) [21]: −1.95 (0.70)
SOFA score, estimated difference (SE) vs. placebo [21]: −0.53 (0.98)
SOFA score evolution (change versus baseline, LOCF), LSMean (SE) [22]: −1.16 (0.69)
SOFA score, estimated difference (SE) vs. placebo [22]: 0.26 (0.98)
SOFA score evolution (change versus baseline, LOCF), LSMean (SE) [23]: −2.00 (0.40)
SOFA score, estimated difference (SE) vs. placebo [23]: −0.59 (0.80)
SOFA score evolution (change versus baseline, LOCF), LSMean (SE) (whole population, Day 5, 0.3 mg/kg/h): −2.91 (0.71)
SOFA score, estimated difference (SE) vs. placebo (whole population, Day 5, 0.3 mg/kg/h, 0.3 mg/kg): −1.66 (1.03)
SOFA score, estimated difference (SE) vs. placebo (whole population, Day 5, 0.3 mg/kg/h, listed as nangibotide, 0.3 mg/kg): −1.66
SOFA score evolution (change versus baseline, LOCF), LSMean (SE) [24]: −2.03 (0.74)
SOFA score, estimated difference (SE) vs. placebo [24]: −0.78 (1.04)
SOFA score evolution (change versus baseline, LOCF), LSMean (SE) (whole population, Day 5, 3.0 mg/kg/h): −0.90 (0.74)
SOFA score, estimated difference (SE) vs. placebo (whole population, Day 5, 3.0 mg/kg/h, 3 mg/kg): 0.34 (1.04)
SOFA score, estimated difference (SE) vs. placebo (whole population, Day 5, 3.0 mg/kg/h, listed as nangibotide, 3 mg/kg): 0.34
SOFA score evolution (change versus baseline, LOCF), LSMean (SE) (whole population, Day 5, all nangibotide doses pooled): −1.95 (0.42)
SOFA score decrease during the first 5 days vs. placebo (whole population, no statistically significant differences): consistent numerical trend in favor of nangibotide
